Activity calls are given as the source filed them. The rule behind the calls is not given here.
Key:
[1] = tested on: HMEC-1; assay: Cytoprotective activity against 4HNE-induced cytotoxicity in HMEC1 cells at 25 uM by MTT assay; format: functional, cell-based; details: Homo sapiens
[2] = Antioxidant activity against superoxide radical generation in HMEC1 cells; format: functional, Homo sapiens, HMEC-1
[3] = Inhibition against UV-induced LDL oxidation in cell-free system at 10 uM after 2 hrs by TBARS assay; parameters: scale not given: the % may be the effect or the level left
[4] = Cytotoxicity against HMEC1 cells after 6 hrs by MTT assay; format: cell-based; details: human, hmec-1, 6 h
[5] = Inhibition of cell-mediated LDL oxidation in HMEC1 cells at 10 uM after 6 hrs by TBARS assay; parameters: scale not given: the % may be the effect or the level left
[6] = Inhibition against copper-induced LDL oxidation in cell-free system at 10 uM after 3 hrs by TBARS assay; parameters: scale not given: the % may be the effect or the level left
[7] = Antioxidant activity assessed as trolox equivalents of ABTS radical scavenging activity by TEAC assay; format: functional
[8] = tested on: Radical scavenging activity; assay: Antioxidant activity assessed as DPPH radical scavenging activity after; format: functional

IC50 [8] [µM]	SMILES	Activity [1]	Activity [2] [%]	Activity [3] [%]	Activity [4] [%]	Activity [5] [%]	Activity [6] [%]	Activity [7]
	NNC(=O)c1ccncc1	inactive						
	COc1cc(/C=N/NC(=N)N)cc(OC)c1O.Cl		36	24	70	10	6	0.69
	COc1cc(/C=N/Nc2c(Cl)cc(C(F)(F)F)cc2Cl)cc(OC)c1O		42	15	74	4	3	0.98
	COc1cc(/C=N/Nc2ccc(F)cc2)cc(OC)c1O		57	18	58	5	6	1.02
	COc1cc(/C=N/Nc2ccccc2F)cc(OC)c1O		33	16	79	13	4	0.78
18	COc1cc(/C=N/NC(=O)c2cccnc2)cc(OC)c1O		44	20	60	5	77	1.25
	Cc1c(C)c2c(c(C)c1O)CCC(C)(C(=O)O)O2 (centres undefined) [TROLOX]		5	18	57	3	6	
	COc1cc(/C=N/Nc2nc3ccccc3s2)cc(OC)c1O		56	17	55	3	2	0.89
	COc1cc(/C=N/NC(=O)c2cc(C)n[nH]2)cc(OC)c1O		50	17	69	3	4	1.15
	COc1cc(C(=O)O)cc(OC)c1O	inactive						
	COc1cc(/C=N/NC(=O)OCc2ccccc2)cc(OC)c1O		50	18	69	3	6	1.11
	COc1cc(/C=N/Nc2nncc3ccccc23)cc(OC)c1O.Cl		30	18	66	4	5	0.75
17	COc1cc(/C=N/NC(=O)c2ccncc2)cc(OC)c1O		22	18	65	7	85	1.25
